Experimental data as given in patent publication US5001154A, “Fervescence composition” (K.K. Ueno Seiyaku Oyo Kenkyujo, priority 1987, dated 1991).

Experiments:
[1] = fervescence activity by intravenous injection (rising of body temperature), 5 mg/kg; assay type: in vivo, Wister male rats; conditions: 5 mg/kg intravenous, urethane-anesthetized rats
Description: (§1) Test animals were Wister male rats (8 weeks old) weighing 200±10 g. The rats were applied to anesthesia by intraperitoneal injection of 1.25 g/kg of urethane. Each test drug was dissolved into ethyl alcohol. The ethyl alcohol solution was diluted with Ringer's solution at least 50 times just before use and 1 mg/kg of the each test drug was intravenously administered. Body temperature was measured in the same manner as in Example 1.
Ringer's solution containing ethyl alcohol was administered as control. Rising of body temperature is shown by the rising degree (°C.) from the temperature before administration.
Experiment was carried out in the same manner as in Example 2 except for that test drugs were administered intravenously with a dose of 5 mg/kg.

[2] = fervescence activity by intracerebroventricular injection (rising of body temperature); assay type: in vivo, Wister male rats; conditions: 400 ng in 3 μl into lateral ventricle, urethane-anesthetized rats, rectal temperature
Description: fervescence activity by intracerebroventricular injection
Wister male rats (8 weeks old) were used as test animals.
Rats were applied to anesthesia by intraperitoneal injection with 1.25 g/kg of urethane and a stainless guide cannula was inserted into the lateral ventricle for administration of a test drug according to Pellegrino's Rat brain atras.
Each test drug was dissolved into an artificial cerebrospinal fluid and 400 ng as drug in 3 μl was injected through the injection cannula for 15 seconds. The artificial cerebrospinal fluid alone was injected as control. Body temperature was measured continuously at the rectum. Rising of body temperature is shown by the rising degree (°C.) from the temperature before administration.

[3] = fervescence activity by intravenous injection (rising of body temperature), 1 mg/kg; assay type: in vivo, Wister male rats; conditions: 1 mg/kg intravenous, urethane-anesthetized rats
Description: as §1, with “fervescence activity by intravenous injection Test animals” for “Test animals”, “Example 1. Ringer's solution containing ethyl alcohol was administered as control. Rising of body temperature is shown by the rising degree (°C.) from the temperature before administration.” for “Example 1.”

[4] = sedation activity and rising of body temperature in dog; assay type: in vivo, hybrid adult dog; conditions: intravenous, 0.5 mg/kg
Excerpt: Sedation Activity A 19-methyl type compound having strong fervescence activity was compared with PGE2 […] sedation activity. A hybrid adult dog was held on a holder for dog and intravenously administered with a test drug dissolved in Ringer's solutions at the forefoot. Sedation activity was judged as follows: Sedation Degree 1: Disappearance of body movement 2: Closing of the eyes 3: Leaning on the holding belt

acute toxicity (LD50) = conditions: mouse, in vivo; mice, intravenous injection
Excerpt: Acute toxicity (LD50) of the test drugs was estimated on Slc-ddY female mice (5-weeks old) by an intravenous injection.

[5] = fervescence (recovery of body temperature) activity at hemorrhage load; assay type: in vivo, Wister male rats; conditions: rat loaded with hemorrhage
Description: fervescence (recovery of body temperature) activity at hemorrhage load
Wister male rats (weight: 200 g) were subcutaneously injected on the back with 1.5 g/kg of urethane, subjected to anesthesia. Hemorrhage was then induced by withdrawal of blood by puncture of the heart for the total volume of 3 ml equivalent to 1.5% of the body weight. After kept in a room for 60 minutes, the rats were administered intravenously with test solutions prepared by dissolving test drugs into Ringer's solution so as to administer the rat at a dose of 0.5 or 1 mg/kg, and change of the body temperature was observed. Ringer's solution was administered as control.
In the figures, (1), (2) and (3) correspond to the results of administration of doses 1 mg/kg, 0.5 mg/kg and Ringer's solution alone, respectively.

[6] = in vivo; cited from earlier work

SMILES | Rising of Body Temperature [1] | Rising of Body Temperature [2] | Rising of Body Temperature [3] | LD50 (acute toxicity (LD50)) | further results
CCOC(=O)CCCCC(=O)C[C@H]1C(=O)C[C@@H](O)[C@@H]1/C=C/C(=O)CCCC(C)C [compound 62] | +0.63 °C |  |  |  | 
CCCCCC(=O)CC[C@H]1[C@H](O)CC(=O)[C@@H]1C/C=C\CCCC(=O)OCCCC [compound 26] | +0.9 °C | +0.1 °C | +0.2 °C |  | 
COC(=O)CCCCC(=O)C[C@H]1C(=O)C[C@@H](O)[C@@H]1CCC(=O)CCCC(C)C [compound 15] |  |  | +0.7 °C |  | Rising of Body Temperature [4]: 1.2 °C
CCCCCC(=O)CC[C@H]1[C@H](O)CC(=O)[C@@H]1C/C=C\CCCC(=O)OC [compound 23] |  | +0.4 °C | +1.0 °C | > 1000 mg/kg | 
CCCCCC(=O)CC[C@H]1[C@H](O)CC(=O)[C@@H]1CCCCCCC(=O)OCC [compound 2] |  | +0.4 °C | +0.9 °C | > 1000 mg/kg | 
CCCCCC(=O)CC[C@H]1[C@H](O)CC(=O)[C@@H]1C/C=C\CCCC(=O)OCCC [compound 25] | +1.3 °C |  | +0.2 °C |  | 
CCOC(=O)CCCCC(=O)C[C@H]1C(=O)C[C@@H](O)[C@@H]1CCC(=O)CCCC(C)C [compound 16] |  |  | +0.8 °C | > 300 mg/kg | Rising of Body Temperature ([5]; 0.5 mg/kg intravenous): +0.4 °C; Rising of Body Temperature ([5]; 1 mg/kg intravenous): +0.6 °C; Rising of Body Temperature [4]: 1.1 °C
CCCCC[C@H](O)/C=C/[C@H]1[C@H](O)CC(=O)[C@@H]1C/C=C\CCCC(=O)O [Test drug 58, PGE2] |  |  |  |  | blood pressure (known) [6]: strongly decreases the blood pressure; fervescence activity (known) [6]: known to have fervescence activity
CCCCCC(=O)CC[C@H]1[C@H](O)CC(=O)[C@@H]1C/C=C\CCCC(=O)OCC [compound 24] |  | +0.5 °C | +0.5 °C | 1000 mg/kg | Rising of Body Temperature ([5]; 0.5 mg/kg intravenous): +0.8 °C; Rising of Body Temperature ([5]; 1 mg/kg intravenous): +1.1 °C
